This data set can be described thus: Solubility test in methyl ethyl ketone. Format: physicochemical. As to conditions: 1.5 g sensitiser in 100 g methyl ethyl ketone, stirred at room temperature (20° C.) for a maximum of 24 hours. Here is the method:
Solubility Test in Methyl Ethyl Ketone
1.5 g of the sensitiser is dissolved in 100g of methyl ethyl ketone and allowed to stir at room temperature (20° C.) for a maximum of 24 hours. If the sensitiser is completely dissolved in the methyl ethyl ketone, the sensitiser passes the solubility test and is considered as a preferred sensitiser according to the present invention.

The values below come from patent US7527916B2, “Photopolymerizable composition” (Agfa Graphics, N.V., priority 2003, dated 2009).

In the case of `CCC(C)Oc1c(OC)cc(C=Cc2ccc(C=Cc3cc(OC)c(OC(C)CC)c(OC)c3)cc2)cc1OC` (centres unmarked) [(D), 1,4-distyryl-(3,5-trimethoxy, 4-(2-butyl)oxy)benzene], the “Solubility test MEK (15 g/kg)” value is reported as “OK (If the sensitiser is completely dissolved in the methyl ethyl ketone, the sensitiser passes the solubility test)”. Turning to `CCCCC(CC)COc1c(OC)cc(C=Cc2ccc(C=Cc3cc(OC)c(OCC(CC)CCCC)c(OC)c3)cc2)cc1OC` (centres unmarked) [(F), 1,4-distyryl-(3,5-trimethoxy, 4-(1-(2-ethyl)hexyl)oxy)benzene], the “Solubility test MEK (15 g/kg)” value was “OK (If the sensitiser is completely dissolved in the methyl ethyl ketone, the sensitiser passes the solubility test)”.
